Reference: ChEMBL document CHEMBL2406943, “ABCB1 Structural Models, Molecular Docking, and Synthesis of New Oxadiazolothiazin-3-one Inhibitors” (ACS Med Chem Lett, 2013)

Target: MDR1 (ABCB1, P-glycoprotein) (Homo sapiens, UniProt P08183)
Test: Inhibition of MDR1 in multidrug resistant human A2780/DX3 cells assessed as accumulation of doxorubicin at 5 times compound concentration that giving 5% antiproliferative activity after 4 hrs by cytofluorimetric assay relative to (Z)-8-(4-chlorophenyl)-5-methyl-8-(pent-2-enyl-oxy)-[1,2,4]oxadiazolo[3,4-c][1,4]thiazin-3(8H)-one
Assay type: cell-based, A2780 ADR
Conditions: probe doxorubicin

Sequence of MDR1 (ABCB1, P-glycoprotein) (P08183 whole entry): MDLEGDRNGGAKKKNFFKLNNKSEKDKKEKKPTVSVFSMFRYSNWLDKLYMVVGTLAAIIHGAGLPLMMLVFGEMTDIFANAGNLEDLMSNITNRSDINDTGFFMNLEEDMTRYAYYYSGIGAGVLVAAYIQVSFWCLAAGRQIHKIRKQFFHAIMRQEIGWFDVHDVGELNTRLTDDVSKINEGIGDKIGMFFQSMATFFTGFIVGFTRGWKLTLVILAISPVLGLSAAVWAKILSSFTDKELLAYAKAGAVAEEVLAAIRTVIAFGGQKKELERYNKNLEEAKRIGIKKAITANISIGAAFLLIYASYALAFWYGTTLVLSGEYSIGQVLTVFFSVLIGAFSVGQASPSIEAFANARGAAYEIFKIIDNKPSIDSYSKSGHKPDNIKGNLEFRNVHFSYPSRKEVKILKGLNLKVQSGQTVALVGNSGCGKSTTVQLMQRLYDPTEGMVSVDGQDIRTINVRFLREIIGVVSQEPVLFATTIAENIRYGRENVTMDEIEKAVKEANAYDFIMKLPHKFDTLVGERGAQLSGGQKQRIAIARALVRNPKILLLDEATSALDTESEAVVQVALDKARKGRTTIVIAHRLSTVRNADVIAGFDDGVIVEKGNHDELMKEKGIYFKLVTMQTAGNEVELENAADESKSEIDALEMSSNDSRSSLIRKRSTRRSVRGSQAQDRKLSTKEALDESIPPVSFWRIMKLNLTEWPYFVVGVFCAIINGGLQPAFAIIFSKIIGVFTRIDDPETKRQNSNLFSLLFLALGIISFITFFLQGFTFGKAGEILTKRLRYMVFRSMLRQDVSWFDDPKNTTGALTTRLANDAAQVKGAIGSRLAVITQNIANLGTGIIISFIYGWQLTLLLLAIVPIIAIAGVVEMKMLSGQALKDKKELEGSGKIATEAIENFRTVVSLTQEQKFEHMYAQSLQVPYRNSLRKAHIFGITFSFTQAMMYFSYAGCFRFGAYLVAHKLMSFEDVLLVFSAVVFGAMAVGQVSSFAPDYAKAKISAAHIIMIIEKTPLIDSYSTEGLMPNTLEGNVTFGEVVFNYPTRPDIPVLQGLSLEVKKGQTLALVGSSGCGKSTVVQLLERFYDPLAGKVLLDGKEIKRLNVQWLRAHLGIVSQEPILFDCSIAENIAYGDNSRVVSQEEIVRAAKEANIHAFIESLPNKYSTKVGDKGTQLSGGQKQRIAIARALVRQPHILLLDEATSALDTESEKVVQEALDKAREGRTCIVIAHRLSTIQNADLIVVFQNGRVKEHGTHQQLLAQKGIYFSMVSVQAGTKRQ

Structure (SMILES) | inhibition at 4 h
CC/C=C\CO[C@]1(c2ccc(Cl)cc2)SC=C(C)n2c1noc2=O | 48%
CC/C=C\CO[C@@]1(c2ccc(Cl)cc2)SC=C(C)n2c1noc2=O | 136%
CCCCCCOC1(c2ccc(Br)cc2)SC=C(C)n2c1noc2=O (racemic) | 72%
CC/C=C/COC1(c2ccc(Cl)cc2)SC=C(C)n2c1noc2=O (racemic) | 35%
CCC/C=C\COC1(c2ccc(Cl)cc2)SC=C(C)n2c1noc2=O (racemic) | 131%
CCC/C=C/COC1(c2ccc(Cl)cc2)SC=C(C)n2c1noc2=O (racemic) | 109%
CCCCCCOC1(c2ccc(Cl)cc2)SC=C(C)n2c1noc2=O (racemic) | 18%
CC/C=C\COC1(c2ccc(Br)cc2)SC=C(C)n2c1noc2=O (racemic) | 139%
